Structures can show the parent of a compound that is named as a salt. Where two headings read alike, the source gives them in different places.
What was measured:
[1] = test system: self-administration rat model; test: Self-administration Studies, Food vs Drug (heroin choice); assay type: in vivo
DOR = target: T1, DOR (Homo sapiens, UniProt P41143); test: DOR [35S]GTPγS binding assay; assay type: biochemical; conditions: Tables A, B
T1 construct: expressed in transfected cells; host or cells: CHO
Procedure: The [^35S]GTPγS functional assay was conducted to determine the efficacy of the compounds at the MOR, KOR and DOR. […] The Bradford protein assay was utilized to determine and adjust the concentration of protein required for the assay. Nonspecific binding was determined with 20 μM unlabeled GTPγS. Furthermore, 3 μM DAMGO/U50488H/SNC80 was included in the assay as the maximally effective concentration of a full agonist for the MOR/KOR/DOR. After incubation, the bound radioactive ligand was separated from the free radioligand by filtration through a GF/B glass fiber filter paper using a Brandel harvester. Bound radioactivity was determined by liquid scintillation counting. All assays were determined in duplicate and repeated at least three times. Net stimulated [^35S]GTPγS binding was defined as agonist-stimulated minus basal binding in the absence of agonist. Percent of DAMGO/U50488H/SNC80 stimulated [^35S]GTPγS binding was defined as (net-stimulated binding by ligand/net-stimulated binding by 3 μM DAMGO U50488H/SNC80)×100%.

hM2 = target: T2, hM2 (Homo sapiens, UniProt P08172); test: side effect profiling, hM2; assay type: binding; conditions: for hM2 binding: at 10 uM
T2 sequence (P08172 1-466): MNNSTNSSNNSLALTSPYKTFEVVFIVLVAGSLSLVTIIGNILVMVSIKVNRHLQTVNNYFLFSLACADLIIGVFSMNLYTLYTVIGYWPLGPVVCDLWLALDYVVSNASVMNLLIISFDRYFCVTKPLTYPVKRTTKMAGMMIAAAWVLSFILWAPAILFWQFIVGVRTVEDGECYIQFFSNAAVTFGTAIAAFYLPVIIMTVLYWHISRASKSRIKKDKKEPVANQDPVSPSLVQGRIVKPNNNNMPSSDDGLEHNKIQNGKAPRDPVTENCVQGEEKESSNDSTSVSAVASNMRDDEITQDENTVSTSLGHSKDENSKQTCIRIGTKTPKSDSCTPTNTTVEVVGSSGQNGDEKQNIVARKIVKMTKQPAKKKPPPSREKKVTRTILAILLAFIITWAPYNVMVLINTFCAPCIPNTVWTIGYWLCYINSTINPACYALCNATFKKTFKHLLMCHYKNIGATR

[2] = In vivo Bioavailability Foral; conditions: po
[3] = Protein Binding (plasma), human
hERG channel = hERG channel (Homo sapiens, UniProt Q12809); test: hERG channel testing
CYP2C19 = CYP2C19 (Homo sapiens, UniProt P33261); test: CYP450 enzyme testing, CYP2C19
morphine-pelleted mice = test: opioid withdrawal study in morphine-pelleted mice; conditions: for Withdrawal study: wet-dog shakes, escape jumps, paw tremors: 1 mg/kg dose, compared to 1 mg/kg naloxone; for withdrawal symptoms (wet-dog shakes, escape jumps, paw tremors): 1 mg/kg s.c., compared to 1 mg/kg NLX; for withdrawal symptoms at higher doses: 5 mg/kg and above, s.c.
[4] = Metabolic Stability (half-life), human
hM1 = target: T3, hM1 (Homo sapiens, UniProt P11229); test: side effect profiling, hM1; assay type: binding; conditions: for hM1 binding: at 10 uM
T3 sequence (P11229 1-460): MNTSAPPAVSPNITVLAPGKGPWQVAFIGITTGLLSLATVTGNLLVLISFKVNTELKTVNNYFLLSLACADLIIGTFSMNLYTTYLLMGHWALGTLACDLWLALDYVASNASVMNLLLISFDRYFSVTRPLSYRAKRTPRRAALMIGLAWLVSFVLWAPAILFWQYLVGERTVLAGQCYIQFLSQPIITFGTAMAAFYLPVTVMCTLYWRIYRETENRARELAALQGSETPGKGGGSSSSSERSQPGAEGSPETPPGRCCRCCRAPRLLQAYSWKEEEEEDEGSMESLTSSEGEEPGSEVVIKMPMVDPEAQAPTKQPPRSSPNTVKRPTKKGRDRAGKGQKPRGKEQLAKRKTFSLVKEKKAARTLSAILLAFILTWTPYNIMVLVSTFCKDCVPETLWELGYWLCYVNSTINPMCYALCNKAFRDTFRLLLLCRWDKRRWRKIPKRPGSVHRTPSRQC

hM4 = target: T4, hM4 (Homo sapiens, UniProt P08173); test: side effect profiling, hM4; assay type: binding; conditions: for hM4 binding: at 10 uM
T4 sequence (P08173 1-479): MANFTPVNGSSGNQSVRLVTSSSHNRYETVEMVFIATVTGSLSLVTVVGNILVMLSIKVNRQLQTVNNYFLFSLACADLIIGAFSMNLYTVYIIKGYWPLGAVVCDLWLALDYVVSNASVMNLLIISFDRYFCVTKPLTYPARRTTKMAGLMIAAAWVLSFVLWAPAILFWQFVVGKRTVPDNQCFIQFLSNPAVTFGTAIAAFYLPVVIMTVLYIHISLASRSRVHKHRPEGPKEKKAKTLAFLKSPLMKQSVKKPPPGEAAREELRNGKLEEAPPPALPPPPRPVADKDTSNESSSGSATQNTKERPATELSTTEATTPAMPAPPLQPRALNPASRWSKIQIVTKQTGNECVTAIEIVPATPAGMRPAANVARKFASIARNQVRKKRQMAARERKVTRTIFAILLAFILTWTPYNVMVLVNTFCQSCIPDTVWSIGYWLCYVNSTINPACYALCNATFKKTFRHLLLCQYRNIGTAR

solubility = conditions: Tables A, B

Sequence of CYP2C19 (P33261 whole entry): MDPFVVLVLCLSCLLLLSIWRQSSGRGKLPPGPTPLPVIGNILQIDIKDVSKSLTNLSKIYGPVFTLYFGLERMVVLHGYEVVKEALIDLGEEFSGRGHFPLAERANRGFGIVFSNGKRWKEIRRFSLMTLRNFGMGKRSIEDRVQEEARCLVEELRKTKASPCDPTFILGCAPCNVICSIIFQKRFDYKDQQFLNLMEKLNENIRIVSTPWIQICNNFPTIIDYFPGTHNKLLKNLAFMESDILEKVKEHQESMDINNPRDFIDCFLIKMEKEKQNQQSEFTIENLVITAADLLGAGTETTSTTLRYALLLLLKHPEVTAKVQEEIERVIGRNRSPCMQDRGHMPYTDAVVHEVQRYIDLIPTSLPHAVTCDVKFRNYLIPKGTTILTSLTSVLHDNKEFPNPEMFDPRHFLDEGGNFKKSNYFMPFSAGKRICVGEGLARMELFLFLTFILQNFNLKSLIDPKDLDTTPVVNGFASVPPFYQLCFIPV
T1 sequence (P41143 whole entry): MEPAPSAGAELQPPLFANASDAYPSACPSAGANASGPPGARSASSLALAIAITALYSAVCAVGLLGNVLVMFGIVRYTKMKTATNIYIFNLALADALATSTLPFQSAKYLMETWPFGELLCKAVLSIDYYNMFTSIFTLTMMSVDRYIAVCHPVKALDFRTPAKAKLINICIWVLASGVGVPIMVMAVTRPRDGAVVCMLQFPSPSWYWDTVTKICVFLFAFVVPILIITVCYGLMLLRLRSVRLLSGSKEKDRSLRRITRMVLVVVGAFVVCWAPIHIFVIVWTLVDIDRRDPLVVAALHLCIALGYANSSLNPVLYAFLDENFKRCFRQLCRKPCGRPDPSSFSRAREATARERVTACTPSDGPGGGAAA
Sequence of hERG channel (Q12809 whole entry): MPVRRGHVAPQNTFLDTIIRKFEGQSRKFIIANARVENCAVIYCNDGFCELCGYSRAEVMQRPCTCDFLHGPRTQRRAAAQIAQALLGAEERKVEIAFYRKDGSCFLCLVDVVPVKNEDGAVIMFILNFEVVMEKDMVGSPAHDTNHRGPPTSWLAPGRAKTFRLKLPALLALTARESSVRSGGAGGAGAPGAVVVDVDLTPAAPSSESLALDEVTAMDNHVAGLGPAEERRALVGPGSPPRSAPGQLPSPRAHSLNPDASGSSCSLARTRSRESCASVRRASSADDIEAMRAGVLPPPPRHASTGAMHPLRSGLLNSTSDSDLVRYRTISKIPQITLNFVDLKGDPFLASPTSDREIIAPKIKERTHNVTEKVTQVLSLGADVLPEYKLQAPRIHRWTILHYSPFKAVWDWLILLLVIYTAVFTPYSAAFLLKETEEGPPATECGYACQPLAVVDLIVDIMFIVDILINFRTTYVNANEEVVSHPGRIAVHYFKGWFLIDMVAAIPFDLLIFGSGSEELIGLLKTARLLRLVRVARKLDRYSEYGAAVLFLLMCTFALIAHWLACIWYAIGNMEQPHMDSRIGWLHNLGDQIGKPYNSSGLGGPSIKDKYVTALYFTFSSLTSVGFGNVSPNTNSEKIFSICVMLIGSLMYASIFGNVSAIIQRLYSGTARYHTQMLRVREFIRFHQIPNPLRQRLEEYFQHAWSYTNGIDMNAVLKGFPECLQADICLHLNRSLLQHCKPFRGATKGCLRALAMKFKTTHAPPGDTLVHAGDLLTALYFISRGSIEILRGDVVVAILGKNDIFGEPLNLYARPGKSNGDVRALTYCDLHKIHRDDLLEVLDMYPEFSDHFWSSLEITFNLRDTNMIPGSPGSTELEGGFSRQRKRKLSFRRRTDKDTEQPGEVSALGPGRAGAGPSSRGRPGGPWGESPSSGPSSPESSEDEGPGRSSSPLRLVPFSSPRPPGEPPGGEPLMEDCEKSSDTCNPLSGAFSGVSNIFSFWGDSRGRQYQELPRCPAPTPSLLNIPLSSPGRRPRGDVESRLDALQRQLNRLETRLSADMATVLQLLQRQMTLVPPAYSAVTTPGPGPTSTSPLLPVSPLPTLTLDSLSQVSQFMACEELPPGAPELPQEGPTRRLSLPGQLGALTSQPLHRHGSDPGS

Row | Compound | Self-administration Studies Food vs Drug [1] | 35S-GTP[γS]-Binding DOR Efficacy (% max of SNC80) (DOR) | Ki (hM2) | hM2 binding (hM2) | bioavailability [2] | fraction unbound [3] | hERG channel testing (Eurofins) (hERG channel) | Withdrawal study: wet-dog shakes, escape jumps, paw tremors (morphine-pelleted mice) | half-life [4] | hM1 binding (hM1) | hM4 binding (hM4) | AMES testing (AMES testing) | Solubility (solubility) | withdrawal symptoms (wet-dog shakes, escape jumps, paw tremors) (morphine-pelleted mice) | withdrawal symptoms at higher doses (morphine-pelleted mice) | further results
1 | O=C(N[C@H]1CCC2(O)C3Cc4ccc(O)c5c4[C@@]2(CCN3CC2CC2)[C@H]1O5)c1ccc[nH]1 (stereo partly drawn) [Example 1 compound 1, 17-Cyclopropylmethyl-3,14β-dihydroxy-4,5α-epoxy-6a-[(2′-pyrrolyl)carboxamido]morphinan hydrochloride] | reduce heroin choice and increase food choice | 50.94 ± 5.26% | 7.28 µM | 58% | 59% | 0.43 | 2.6 µM | At 1 mg/kg dose of NAY produced NO wet-dog | > 1 h | – | – | – | – | – | – | hERG channel testing (NIH) (hERG channel; NIH): 12.5 µM; CYP2C19 inhibition (in words) (CYP2C19; human): Only moderate at CYP2D6 and CYP2C19
2 | O=C(N[C@H]1CC[C@@]2(O)[C@H]3Cc4ccc(O)c5c4[C@@]2(CCN3CC2CC2)[C@H]1O5)c1cccs1 [Example 1 compound 25, 17-Cyclopropylmethyl-3,14β-dihydroxy-4,5α-epoxy-6α-(2′-thienylcarboxamido)morphinan hydrochloride] | – | 48.58 ± 3.41% | 1.9 µM | 81% | 19% | 0.63 | 2.5 µM (Eurofins) | – | > 1 h | 53% | 61% | No toxicity shown | Solubility: DMSO, H2O | significantly fewer wet-dog shakes, escape jumps, and paw tremors | started showing wet dog shakes and jumps at a 5 mg/kg dose | Ki (hM1): 8.4 µM; Ki (hM4): 4.9 µM; CYP2C19 inhibition (CYP2C19): Only CYP2C19 inhibition (~3 uM); Withdrawal study: wet-dog shakes, escape jumps, paw tremors at high dose (morphine-pelleted mice; high dose (5 to 20 mg/kg), compared to naloxone at 1 mg/kg, listed as NAT, hydrochloride): lower compared to naloxone at 1 mg/kg.
3 | O=C(N[C@H]1CC[C@@]2(O)[C@H]3Cc4ccc(O)c5c4[C@@]2(CCN3CC2CC2)[C@H]1O5)c1nccs1 [NTZ, 17-Cyclopropylmethyl-3,14β-dihydroxy-4,5α-epoxy-6α-(2′-thiazolylcarboxamido)morphinan hydrochloride] | reduce heroin choice and increase food choice in a | 46.51 ± 2.17% | – | hM2 (88% at 10 uM) | – | 0.56 | 7.4 µM (Eurofins) | fewer symptoms than naloxone at the same dose. | > 1 h | hM1 (53% at 10 uM) | hM4 (67% at 10 uM) | No toxicity shown | Solubility: DMSO, H2O | – | – | EC50 (DOR; read-out: 35S-GTP[γS]-Binding DOR Potency EC50): 0.0236 ± 0.00429 µM; Withdrawal study: precipitation of withdrawal syndromes (morphine-pelleted mice; up to 0.1 mg/kg): No significant precipitation of withdrawal syndromes
4 | O=C(N[C@H]1CC[C@@]2(O)[C@H]3Cc4ccc(O)c5c4[C@@]2(CCN3CC2CC2)[C@H]1O5)c1ccsc1 [Example 1 compound 31, 17-Cyclopropylmethyl-3,14β-dihydroxy-4,5α-epoxy-6α-(3′-thienylcarboxamido)morphinan hydrochloride] | reduce heroin choice and increase food choice in a | 58.5 ± 3.13% | – | hM2 (82% at 10 uM) | 15% | 0.4 | 1.3 µM (Eurofins) | produced significantly fewer wet-dog shakes, | > 1 h | hM1 (62% at 10 uM) | hM4 (65% at 10 uM) | No toxicity shown | Solubility: DMSO, H2O | significantly fewer wet-dog shakes, escape jumps, and paw tremors | started showing wet dog shakes and jumps at a 5 mg/kg dose | CYP2C19 inhibition (in words) (CYP2C19): Only moderate at CYP2D6 and CYP2C19

— patent US20250195504A1, “NALTREXAMINE DERIVATIVES BEARING 5-MEMBER HETEROCYCLIC RING SYSTEMS AND OPIOID RECEPTOR MODULATORS” (VIRGINIA COMMONWEALTH UNIVERSITY, priority 2022, published 2025)
